In brackets after ≈: the same amount, converted by molar mass. Where two headings read alike, the source gives them in different places. Marks after values point to notes of the source that are not given here.
Columns and labels:
[1] = tested on: Staphylococcus aureus UC-76; assay: Acute mouse protection test; type: in vivo; details: single dose given at time of challenge, compound B series; for Single sc Dose PD50 (mg/kg) ± 95% Confidence Limits Staphylococcus aureus UC-76: subcutaneous
[2] = tested on: Escherichia coli Vogel; assay: Acute mouse protection test; type: in vivo; details: single dose given at time of challenge; for Single po Dose PD50 (mg/kg) ± 95% Confidence Limits Escherichia coli Vogel / Single sc Dose PD50 (mg/kg) ± 95% Confidence Limits Escherichia coli Vogel: compound B series; for ED50: Escherichia coli, compound A series
[3] = tested on: Staph. aureus UC-76; assay: Antibacterial activity, MIC; type: cell-based; details: for MIC µg/ml Staph. aureus UC-76: based on content of compound B
[4] = tested on: Pseudo. aeruginosa UI-18; assay: Antibacterial activity, MIC; type: cell-based
[5] = tested on: Klebs. pneumoniae MGH-2; assay: Antibacterial activity, MIC; type: cell-based; details: for MIC µg/ml Klebs. pneumoniae MGH-2: based on content of compound B
[6] = tested on: E. coli Vogel; assay: Antibacterial activity, MIC; type: cell-based; details: for MIC µg/ml E. coli Vogel: based on content of compound B
[7] = tested on: Entero cloacae MA 2646; assay: Antibacterial activity, MIC; type: cell-based; details: for MIC µg/ml Entero cloacae MA 2646: based on content of compound B
[8] = tested on: Proteus retgeri M 1771; assay: Antibacterial activity, MIC; type: cell-based; details: for MIC µg/ml Proteus retgeri M 1771: based on content of compound B
[9] = tested on: Strep. faecalis MGH-2; assay: Antibacterial activity, MIC; type: cell-based; details: for MIC µg/ml Strep. faecalis MGH-2: based on content of compound B
[10] = tested on: Klebsiella pneumoniae MGH-2; assay: Acute mouse protection test; type: in vivo; details: single dose given at time of challenge; for Single sc Dose PD50 (mg/kg) ± 95% Confidence Limits Klebsiella pneumoniae MGH-2: compound B series; for ED50: Klebsiella pneumoniae, compound A series
[11] = tested on: Strep. pneumoniae SV-1; assay: Antibacterial activity, MIC; type: cell-based; details: for MIC µg/ml Strep. pneumoniae SV-1: based on content of compound B
[12] = tested on: Staph. aureus H 228; assay: Antibacterial activity, MIC; type: cell-based; details: for MIC µg/ml Staph. aureus H 228: based on content of compound B
[13] = tested on: Strep. pyogenes C-203; assay: Antibacterial activity, MIC; type: cell-based; details: for MIC µg/ml Strep. pyogenes C-203: based on content of compound B
[14] = Solubility screening procedure (concentration and pH of filtrate); type: physicochemical
Protocol: (§1) The amount of Compound A or Compound B calculated for selected concentrations was weighed into volumetric flasks. Equimolar quantities of combining acid, amino acid, or base were added either as solutions or in dry form. Deionized water was added to bring the volume to that desired for the preselected concentrations.. All flasks were sonicated for 15 minutes, allowed to stand at room temperature for 30 minutes, then filtered through a fine frit sintered glass funnel. After the pH of the filtrate was taken, suitable dilutions were made into 0.1N HCl for ultraviolet spectrophotometric assay of concentration. Ten fold dilutions of the original filtrates were made into standard I.V. solutions.

[15] = Solubility of lyophilized and crystalline solids; type: physicochemical
[16] = 10x dilution of soluble forms with standard IV solutions (pH, precipitate); type: physicochemical
Protocol: as §1

In the case of `CCn1cc(C(=O)O)c(=O)c2cc(F)c(N3CCNCC3)nc21` [B Aspartate], the “Single po Dose PD50 (mg/kg) ± 95% Confidence Limits Staphylococcus aureus UC-76” value [1] is reported as 13 ± 3.0 mg/kg, the “Single sc Dose PD50 (mg/kg) ± 95% Confidence Limits Staphylococcus aureus UC-76” value [1] is reported as 4.3 ± 1.4 mg/kg and the “Single po Dose PD50 (mg/kg) ± 95% Confidence Limits Escherichia coli Vogel” value [2] is reported as 2.9 ± 1.0 mg/kg. For the same molecule, the “Single sc Dose PD50 (mg/kg) ± 95% Confidence Limits Escherichia coli Vogel” value ([2]; subcutaneous) was 1.3 ± 0.4 mg/kg, the “MIC µg/ml Staph. aureus UC-76” value [3] was 0.1 µg/mL (≈ 0.312 µM) and the “MIC µg/ml Pseudo. aeruginosa UI-18” value ([4]; based on content of compound B) was 0.4 µg/mL (≈ 1.25 µM). The “MIC µg/ml Klebs. pneumoniae MGH-2” value [5] was 0.1 µg/mL (≈ 0.312 µM), the “MIC µg/ml E. coli Vogel” value [6] was under 0.1 µg/mL and the “MIC µg/ml Entero cloacae MA 2646” value [7] was 0.2 µg/mL (≈ 0.624 µM). The “MIC µg/ml Proteus retgeri M 1771” value [8] was under 0.1 µg/mL, the “MIC µg/ml Strep. faecalis MGH-2” value [9] was 3.1 µg/mL (≈ 9.68 µM) and the “Single sc Dose PD50 (mg/kg) ± 95% Confidence Limits Klebsiella pneumoniae MGH-2” value ([10]; subcutaneous) was 1.6 ± 0.6 mg/kg. The “MIC µg/ml Strep. pneumoniae SV-1” value [11] was 3.1 µg/mL (≈ 9.68 µM), the “MIC µg/ml Staph. aureus H 228” value [12] was 3.1 µg/mL (≈ 9.68 µM) and the “MIC µg/ml Strep. pyogenes C-203” value [13] was 6.3 µg/mL (≈ 19.7 µM).
With `CCn1cc(C(=O)O)c(=O)c2cc(F)c(N3CCNCC3)nc21` [B Gluconate] the “Single po Dose PD50 (mg/kg) ± 95% Confidence Limits Escherichia coli Vogel” value [2] was 2.9 ± 0.7 mg/kg, the “Single sc Dose PD50 (mg/kg) ± 95% Confidence Limits Escherichia coli Vogel” value ([2]; subcutaneous) was 1.1 ± 0.4 mg/kg and the “MIC µg/ml Staph. aureus UC-76” value [3] was 0.4 µg/mL. For the same molecule, the “MIC µg/ml Pseudo. aeruginosa UI-18” value ([4]; based on content of compound B) was 0.8 µg/mL, the “MIC µg/ml Klebs. pneumoniae MGH-2” value [5] was 0.2 µg/mL and the “MIC µg/ml E. coli Vogel” value [6] was 0.1 µg/mL. For the same molecule, the “MIC µg/ml Entero cloacae MA 2646” value [7] was 0.4 µg/mL, the “MIC µg/ml Proteus retgeri M 1771” value [8] was 0.2 µg/mL and the “MIC µg/ml Strep. faecalis MGH-2” value [9] was 3.1 µg/mL. For the same molecule, the “Single sc Dose PD50 (mg/kg) ± 95% Confidence Limits Klebsiella pneumoniae MGH-2” value ([10]; subcutaneous) was 5.2 ± 1.5 mg/kg, the “MIC µg/ml Strep. pneumoniae SV-1” value [11] was 3.1 µg/mL and the “MIC µg/ml Staph. aureus H 228” value [12] was 1.6 µg/mL. The “MIC µg/ml Strep. pyogenes C-203” value [13] was 3.1 µg/mL.
With `CCn1cc(C(=O)O)c(=O)c2cc(F)c(N3CCNCC3)nc21` [B Glutamate] the “Single po Dose PD50 (mg/kg) ± 95% Confidence Limits Staphylococcus aureus UC-76” value [1] was 12.0 ± 3.0 mg/kg, the “Single sc Dose PD50 (mg/kg) ± 95% Confidence Limits Staphylococcus aureus UC-76” value [1] was 2.8 ± 1.0 mg/kg and the “Single po Dose PD50 (mg/kg) ± 95% Confidence Limits Escherichia coli Vogel” value [2] was 2.9 ± 1.0 mg/kg. The “Single sc Dose PD50 (mg/kg) ± 95% Confidence Limits Escherichia coli Vogel” value ([2]; subcutaneous) was 1.6 ± 0.6 mg/kg, the “MIC µg/ml Staph. aureus UC-76” value [3] was under 0.1 µg/mL and the “MIC µg/ml Pseudo. aeruginosa UI-18” value ([4]; based on content of compound B) was 0.2 µg/mL (≈ 0.624 µM). For the same molecule, the “MIC µg/ml Klebs. pneumoniae MGH-2” value [5] was 0.2 µg/mL (≈ 0.624 µM), the “MIC µg/ml E. coli Vogel” value [6] was under 0.1 µg/mL and the “MIC µg/ml Entero cloacae MA 2646” value [7] was 0.2 µg/mL (≈ 0.624 µM). The “MIC µg/ml Proteus retgeri M 1771” value [8] was 0.1 µg/mL (≈ 0.312 µM), the “MIC µg/ml Strep. faecalis MGH-2” value [9] was 3.1 µg/mL (≈ 9.68 µM) and the “Single sc Dose PD50 (mg/kg) ± 95% Confidence Limits Klebsiella pneumoniae MGH-2” value ([10]; subcutaneous) was 1.9 ± 0.9 mg/kg. The “MIC µg/ml Strep. pneumoniae SV-1” value [11] was 3.1 µg/mL (≈ 9.68 µM), the “MIC µg/ml Staph. aureus H 228” value [12] was 1.6 µg/mL (≈ 4.99 µM) and the “MIC µg/ml Strep. pyogenes C-203” value [13] was 6.3 µg/mL (≈ 19.7 µM).
With `CCn1cc(C(=O)O)c(=O)c2cc(F)c(N3CCNCC3)nc21` [B Methane Sulphonic] the “Conc. of CPD B” value ([14]; compound B + equimolar acid, amino acid or base in deionized water, room temperature, filtrate, UV assay) was 211000 µg/mL, the “pH of Solution” value ([14]; pH of the filtrate, CPD B solutions) was 1.67^c and the “pH of Solution Cryst.” value ([15]; CPD B salt, crystalline solid) was 3.15. The “pH of Solution Lyo.” value ([15]; CPD B salt, lyophilized solid) was 1.8, the solubility ([15]; lyophilized solid, not necessarily maximum value, read-out: Conc. of CPD B mg/ml Lyo.) was 200 mg/mL (≈ 624000 µM) and the “Solution 2 pH dil” value ([16]; concentrated Cpd B solution (154-221 mg/ml) diluted 10x with 5% Dextrose) was 3.2. For the same molecule, the “Solution 3 pH dil” value ([16]; concentrated Cpd B solution (154-221 mg/ml) diluted 10x with 5% Dextrose + 0.9% NaCl) was 2.8, the “Solution 4 pH dil” value ([16]; concentrated Cpd B solution (154-221 mg/ml) diluted 10x with Lactated Ringer's Solution) was 4.2 and the “Solution 1 pH dil” value ([16]; concentrated Cpd B solution (155-221 mg/ml) diluted 10x with 0.9% NaCl) was 2.3. The “Solution 1 ppt 4 hr” value ([16]; concentrated Cpd B solution (155-221 mg/ml) diluted 10x with 0.9% NaCl, precipitate at 4 hr) was “yes”, the “Solution 1 ppt 24 hr” value ([16]; concentrated Cpd B solution (155-221 mg/ml) diluted 10x with 0.9% NaCl, precipitate at 24 hr) was “yes” and the “Solution 3 ppt 4 hr” value ([16]; concentrated Cpd B solution diluted 10x with 5% Dextrose + 0.9% NaCl, precipitate at 4 hr) was “yes”. For the same molecule, the “Solution 3 ppt 24 hr” value ([16]; concentrated Cpd B solution diluted 10x with 5% Dextrose + 0.9% NaCl, precipitate at 24 hr) was “yes”, the “Solution 2 ppt 4 hr” value ([16]; concentrated Cpd B solution diluted 10x with 5% Dextrose, precipitate at 4 hr) was “hazy” and the “Solution 2 ppt 24 hr” value ([16]; concentrated Cpd B solution diluted 10x with 5% Dextrose, precipitate at 24 hr) was “hazy”. The “Solution 4 ppt 4 hr” value ([16]; concentrated Cpd B solution diluted 10x with Lactated Ringer's Solution, precipitate at 4 hr) was “yes”, the “Solution 4 ppt 24 hr” value ([16]; concentrated Cpd B solution diluted 10x with Lactated Ringer's Solution, precipitate at 24 hr) was “yes” and the “Solution 1 pH dil” value ([16]; low-concentration Cpd B solution (26.2-52 mg/ml) diluted 10x with 0.9% NaCl) was 4.47. The “Solution 1 ppt 24 hr” value ([16]; low-concentration Cpd B solution (26.2-52 mg/ml) diluted 10x with 0.9% NaCl, precipitate at 24 hr) was “no”, the “pH of Solut.” value ([16]; undiluted concentrated Cpd B solution used for the Solution 1 dilution) was 1.38 and the “Concen. of Cpd B” value ([16]; undiluted concentrated solution (at least 155 mg/ml) used for the Solution 1 dilution (for most salts for all four solutions)) was 178000 µg/mL. For the same molecule, the “pH of Solut.” value ([16]; undiluted low-concentration Cpd B solution (26.2-52 mg/ml)) was 5.07 and the “Concen. of Cpd B” value ([16]; undiluted low-concentration solution (26.2-52 mg/ml), diluted with Solution 1 only) was 26200 µg/mL.
In the case of `CCn1cc(C(=O)O)c(=O)c2cc(F)c(N3CCNCC3)cc21` [Compound A, 1-ethyl-6-fluoro-1,4-dihydro-4-oxo-7-(1-piperazinyl)-3-quinolinecarboxylic acid, reference compound], the ED50 ([2]; po, read-out: Single po Dose PD50 (mg/kg) ± 95% Confidence Limits Escherichia coli Vogel) is reported as 3.3 ± 0.5 mg/kg, the ED50 ([2]; sc, subcutaneous, read-out: Single sc Dose PD50 (mg/kg) ± 95% Confidence Limits Escherichia coli Vogel) is reported as 0.5 ± 0.1 mg/kg and the MIC ([3]; Staphylococcus aureus, UC76, based on content of compound A) is reported as 0.1 µg/mL (≈ 0.313 µM). The “MIC µg/ml Pseudo. aeruginosa UI-18” value ([4]; based on content of compound A) was 0.4 µg/mL (≈ 1.25 µM), the MIC ([5]; Klebsiella pneumoniae, MGH2, based on content of compound A) was 0.2 µg/mL (≈ 0.626 µM) and the MIC ([6]; Escherichia coli, based on content of compound A) was 0.1 µg/mL (≈ 0.313 µM). It also gave an MIC ([7]; based on content of compound A) of under 0.1 µg/mL, an MIC ([8]; based on content of compound A) of under 0.1 µg/mL and an MIC ([9]; Enterococcus faecalis, MGH2, based on content of compound A) of 1.6 µg/mL (≈ 5.01 µM). For the same molecule, the ED50 ([10]; MGH2, po, oral, read-out: Single po Dose PD50 (mg/kg) ± 95% Confidence Limits Klebsiella pneumoniae MGH-2) was 15 ± 3 mg/kg, the ED50 ([10]; MGH2, sc, subcutaneous, read-out: Single sc Dose PD50 (mg/kg) ± 95% Confidence Limits Klebsiella pneumoniae MGH-2) was 1.3 ± 0.3 mg/kg and the MIC ([11]; Streptococcus pneumoniae, SV1, based on content of compound A) was 0.8 µg/mL (≈ 2.51 µM). The MIC ([12]; Staphylococcus aureus, H228, based on content of compound A) was 1.6 µg/mL (≈ 5.01 µM) and the MIC ([13]; Streptococcus pyogenes, C203, based on content of compound A) was 0.8 µg/mL (≈ 2.51 µM).

— EP0067666A1, “Salts of antimicrobial naphthyridine and quinoline compounds and their production” (priority 1981, dated 1982)
